Type in all cases: cell-based
Holding throughout (parameters): dose or concentration left out as unconfirmed

Assay [1] concerns non-small cell lung carcinoma cell line H157. Put plainly: Viability assay, Trypan blue exclusion, non-small cell lung carcinoma cell line H157. The following applies: for cytotoxicity: Homo sapiens, NCI-H157, 96 hours, read-out: percent cell death (% Death), H157; for percent cell death (% Death), H157: 96 hours. How it is done:
(§1) The effect of the sulfones on normal fibroblasts and on tumor cells of prostate, colon, lung and breast origin was examined utilizing the following cell lines: prostate tumor cell line DU-145; colorectal carcinoma cell line DLD-1; non-small cell lung carcinoma cell line H157; and breast tumor cell line BT-20. BT-20 is an estrogen-unresponsive cell line. NIH/3T3 and HFL are normal murine and human fibroblasts, respectively. BT-20, DLD-1 and H157 were grown in Dulbecco's modified Eagle's medium (DMEM) containing 10% fetal bovine serum supplemented with penicillin and streptomycin. DU145 was cultured in RPMI with 10% fetal bovine serum containing penicillin and streptomycin. NIH3T3 and HFL cells were grown in DMEM containing 10% calf serum supplemented with penicillin and streptomycin. All cell cultures were maintained at 37° C. in a humidified atmosphere of 5% CO2.
(§2) Cells were treated with test compound […] concentration and cell viability was determined after 96 hours by the Trypan blue exclusion method. Activity for each compound is reported as a range of cell induced death (% Death) with the lowest activity in the range of 5-10%.

Assay [2] deals with colorectal carcinoma cell line DLD-1. Put plainly: Viability assay, Trypan blue exclusion, colorectal carcinoma cell line DLD-1. The following applies: for cytotoxicity: Homo sapiens, DLD-1, 96 hours, read-out: percent cell death (% Death), DLD-1; for percent cell death (% Death), DLD-1: 96 hours. As to the method: as §1, §2
Assay [3] deals with prostate tumor cell line DU-145. The assay can be described thus: Viability assay, Trypan blue exclusion, prostate tumor cell line DU-145. The following applies: for cytotoxicity: Homo sapiens, DU-145, 96 hours, read-out: percent cell death (% Death), DU145; for percent cell death (% Death), DU145: 96 hours. How it is done: as §1, §2
Assay [4] has as its system breast tumor cell line BT-20. Put plainly: Viability assay, Trypan blue exclusion, breast tumor cell line BT-20. Conditions: for cytotoxicity: Homo sapiens, BT-20, 96 hours, read-out: percent cell death (% Death), BT20; for percent cell death (% Death), BT20: 96 hours. As to the method:
as §1, §2

The structures appear in SMILES notation. Bounds are passed on as bounds.

As for `COc1ccc(CS(=O)(=O)/C=C/c2csc([N+](=O)[O-])c2)cc1` [Example 58, (E)-2-Nitro-4-thiopheneethenyl-4-methoxybenzylsulfone], the cytotoxicity in assay [1] was above 80%; in assay [2], above 80%; in assay [3], 50 to 60%; in assay [4] it was 40 to 50%.
On to `O=S(=O)(/C=C/c1ccoc1)Cc1ccc(I)cc1` [Example 44, (E)-3-Furanethenyl-4-iodobenzylsulfone], for which the cytotoxicity in assay [1], in assay [2], in assay [3] and in assay [4] was above 80% in each case.
As to `O=S(=O)(/C=C/c1ccc(Br)s1)Cc1ccc(Br)cc1` [Example 18, (E)-5-Bromo-2-thiopheneethenyl4-bromobenzylsulfone], the cytotoxicity in assay [1], in assay [2], in assay [3] and in assay [4] was 5 to 10% throughout.
`O=S(=O)(/C=C/c1ccc2ccccc2c1)Cc1ccc(Cl)cc1` [Example 65, (E)-2-Naphthaleneethenyl-4-chlorobenzylsulfone]: the cytotoxicity in assay [1], in assay [2], in assay [3] and in assay [4] was 5 to 10% throughout.
For the compound `O=S(=O)(/C=C/c1ccc2ccccc2c1)Cc1ccc(F)cc1` [Example 63, (E)-2-Naphthaleneethenyl-4-fluorobenzylsulfone], the cytotoxicity in assay [1], in assay [2], in assay [3] and in assay [4] was 5 to 10% each time.
Consider `O=S(=O)(/C=C/c1cccs1)Cc1ccc(Br)cc1` [Example 12, (E)-2-Thiopheneethenyl-4-bromobenzylsulfone], for which the cytotoxicity in assay [1], in assay [2], in assay [3] and in assay [4] was 5 to 10% throughout.
On to `O=S1(=O)C=CC(/C=C/S(=O)(=O)Cc2ccc(Cl)cc2)=C1` [Example 34, (E)-3-Thiophene-1,1-dioxoethenyl-4chlorobenzylsulfone], for which the “percent cell death (% Death), H157” value in assay [1] is reported as “+ ((+)=5-10%)”. The “percent cell death (% Death), DLD-1” value in assay [2] is given as “+ ((+)=5-10%)”. Also, in assay [3], the “percent cell death (% Death), DU145” value is “+ ((+)=5-10%)”. The “percent cell death (% Death), BT20” value in assay [4] was “+ ((+)=5-10%)”.
On to `O=[N+]([O-])c1cc(/C=C/S(=O)(=O)Cc2ccc(Cl)cc2)cs1` [Example 55, (E)-2-Nitro-4-thiopheneethenyl-4-chlorobenzylsulfone], for which the cytotoxicity in assay [1] lay in the range of 5 to 10%; in assay [2], 50 to 60%; in assay [3], 10 to 15%; in assay [4], 5 to 10%.
Turning to `COc1ccc(CS(=O)(=O)/C=C/C2=CS(=O)(=O)C=C2)cc1` [Example 36, (E)-3-Thiophene-1,1-dioxoethenyl-4-methoxybenzylsulfone], the “percent cell death (% Death), H157” value in assay [1] is reported as “+ ((+)=5-10%)”. Moreover, the “percent cell death (% Death), DLD-1” value in assay [2] is listed as “+ ((+)=5-10%)”. The “percent cell death (% Death), DU145” value in assay [3] was “+ ((+)=5-10%)”. In assay [4], the “percent cell death (% Death), BT20” value was “+ ((+)=5-10%)”.
For the compound `O=S1(=O)C=CC(/C=C/S(=O)(=O)Cc2ccc(Br)cc2)=C1` [Example 35, (E)-3-Thiophene-1,1-dioxoethenyl-4-bromobenzylsulfone], the “percent cell death (% Death), H157” value in assay [1] is given as “+ ((+)=5-10%)”. The “percent cell death (% Death), DLD-1” value in assay [2] is listed as “+ ((+)=5-10%)”. In addition, the “percent cell death (% Death), DU145” value in assay [3] is listed as “+ ((+)=5-10%)”. Moreover, in assay [4], the “percent cell death (% Death), BT20” value is given as “+ ((+)=5-10%)”.
On to `O=S(=O)(/C=C/c1cccc2ccccc12)Cc1ccc(Br)cc1` [Example 66, (E)-1-Naphthaleneethenyl-4-bromobenzylsulfone], for which the cytotoxicity in assay [1], in assay [2], in assay [3] and in assay [4] was 10 to 15% throughout.
For the compound `O=S(=O)(/C=C/c1cccnc1)Cc1ccc(F)cc1` [Example 2, (E)-3-Pyridineethenyl-4-fluorobenzylsulfone], the cytotoxicity in assay [1], in assay [2], in assay [3] and in assay [4] was 5 to 10% throughout.

(Values after patent US6599932B1, “Alpha, beta-unsaturated sulfones for treating proliferative disorders” (Temple University-Of The Commonwealth System of Higher …, priority 2000, dated 2003).)
